Assay results: article PMC7949145 (The Journal of Biological Chemistry, 2021)
Entries after “also recorded” stand apart in the source; their conditions may differ. Where two headings read alike, the source gives them in different places.

How the values were obtained:
[1] = molecular target: T1, Mtr LpqY (Mycolicibacterium thermoresistibile, UniProt G7CES0); test: Thermal shift assay (SYPRO Orange) of potential ligands; type: binding, Mycobacterium thermoresistible; conditions: ligand 10 mM; for ΔTm: Mtr LpqY 2.6 μM, shift relative to protein alone (Tm 66.0 °C), no unit in table, °C
T1 sequence (G7CES0 29-471): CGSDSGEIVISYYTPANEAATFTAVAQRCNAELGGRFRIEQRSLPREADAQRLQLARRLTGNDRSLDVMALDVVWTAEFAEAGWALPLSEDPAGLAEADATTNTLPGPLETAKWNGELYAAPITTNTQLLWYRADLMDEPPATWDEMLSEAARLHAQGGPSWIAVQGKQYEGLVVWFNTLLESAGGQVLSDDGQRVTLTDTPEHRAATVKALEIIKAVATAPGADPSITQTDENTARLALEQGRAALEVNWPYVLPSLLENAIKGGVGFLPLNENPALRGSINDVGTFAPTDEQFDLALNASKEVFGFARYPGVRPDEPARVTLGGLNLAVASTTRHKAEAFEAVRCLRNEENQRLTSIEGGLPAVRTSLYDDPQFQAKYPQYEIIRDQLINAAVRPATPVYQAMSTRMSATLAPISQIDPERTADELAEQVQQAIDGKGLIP

[2] = molecular target: T1, Mtr LpqY; test: Microscale thermophoresis (MST), wild-type protein; type: binding, Mycobacterium thermoresistible; conditions: for Kd: 21 °C, wild-type Mtr LpqY 500 nM, mean ± SEM, at least three experiments
[3] = system: mycobacteria; design: method as in PMID 22978752; conditions: cited from earlier work
[4] = molecular target: T1, Mtr LpqY; test: Saturation transfer difference (STD) NMR; type: binding, Mycobacterium thermoresistible; conditions: protein 25 μM, ligand 1 mM, PBS D2O pH 7.4, 288 K
Description: However, despite numerous efforts, we were unable to obtain a crystal structure of Mtr LpqY in complex with 6-azido-trehalose. Therefore, to further our understanding into the mode of ligand binding, the binding epitope of 6-azido-trehalose with Mtr LpqY was determined in solution by saturation transfer difference (STD) NMR experiments, as described in the Methods section.
All the STD NMR experiments were performed in PBS D2O buffer, pH 7.4. […] STD NMR spectra were acquired on a Bruker Avance 500.13 MHz at 288 K. The on- and off-resonance spectra were acquired using a train of 50 ms Gaussian selective saturation pulses using a variable saturation time from 0.5 s to 5 s, and a relaxation delay (D1) of 4 s. The water signal was suppressed using the watergate technique ([41]), whereas the residual protein resonances were filtered using a T1ρ-filter of 40 ms. All the spectra were acquired with a spectral width of 8 kHz and 24K data points using 512 scans. The on-resonance spectra were acquired by saturating at 0.80 (aliphatic hydrogens) or 7.20 ppm (aromatic hydrogens), as average chemical shifts predicted from shiftX2 ([42]) for the aliphatic and aromatic residues present in the binding site of Mtr LpqY, whereas the off-resonance spectra were acquired by saturating at 40 ppm. […]

Compound | Recognition in the thermal shift screen (in words) [1] | ΔTm [1] | also measured
OC[C@H]1O[C@H](O[C@H]2[C@H](O)[C@@H](O)C(O)O[C@@H]2CO)[C@H](O)[C@@H](O)[C@@H]1O (mixture of isomers) [maltose] | reduced ΔTm shifts; also recorded: inability | – | –
[N-]=[N+]=N[C@H]1[C@@H](O[C@H]2O[C@H](CO)[C@@H](O)[C@H](O)[C@H]2O)O[C@H](CO)[C@@H](O)[C@@H]1O [2-azido-2-deoxy-trehalose, 2-azido-2-deoxy-α,α′-trehalose] | only a minor shift | 1.7 ± 0.1 | Kd ([2]; read-out: Kd): 1916 ± 7.7 µM; Import into the cytosol of mycobacteria [3]: imported and found in the cytosol
[N-]=[N+]=N[C@@H]1[C@@H](O)[C@@H](O[C@H]2O[C@H](CO)[C@@H](O)[C@H](O)[C@H]2O)O[C@H](CO)[C@H]1O [3-azido-3-deoxy-trehalose] | – | 6.7 ± 0.2 | Kd ([2]; read-out: Kd): 475 ± 17.2 µM; Import into the cytosol of mycobacteria [3]: is not
[N-]=[N+]=N[C@H]1[C@H](O)[C@@H](O)[C@@H](O[C@H]2O[C@H](CO)[C@@H](O)[C@H](O)[C@H]2O)O[C@@H]1CO [4-azido-4-deoxy-trehalose, 4-azido-4-deoxy-α,α′-trehalose] | comparable to trehalose | 10.2 ± 0.1 | Kd ([2]; read-out: Kd): 247 ± 7.1 µM; Import into the cytosol of mycobacteria [3]: imported and found in the cytosol
NC[C@H]1O[C@H](O[C@H]2O[C@H](CO)[C@@H](O)[C@H](O)[C@H]2O)[C@H](O)[C@@H](O)[C@@H]1O [6-amino-6-deoxy-trehalose, 6-amino-6-deoxy-α,α′-trehalose] | – | 7.0 ± 0.1 | –
[N-]=[N+]=NC[C@H]1O[C@H](O[C@H]2O[C@H](CO)[C@@H](O)[C@H](O)[C@H]2O)[C@H](O)[C@@H](O)[C@@H]1O [6-azido-6-deoxy-trehalose, 6-azido-6-deoxy-α,α′-trehalose] | – | – | Kd ([2]; Kd): 443 ± 5.3 µM; Import into the cytosol of mycobacteria [3]: imported and found in the cytosol; Binding by STD NMR [4]: Binding was confirmed
OCC1O[C@H](O[C@H]2OC(CO)[C@H](O)[C@H](O)C2O)C(O)[C@@H](O)[C@H]1O (stereo partly drawn) [Galactotrehalose, α-D-galactopyranosyl-(1→1)-α-D-glucopyranoside] | – | 6.1 ± 0.6 | –
OC[C@H]1O[C@H](OC[C@H]2OC(O)[C@H](O)[C@@H](O)[C@@H]2O)[C@H](O)[C@@H](O)[C@@H]1O (stereo partly shown) [Isomaltose] | reduced ΔTm shifts | 4.1 ± 0.2 | –
OC[C@H]1O[C@H](O[C@H]2C(O)O[C@H](CO)[C@@H](O)[C@@H]2O)[C@H](O)[C@@H](O)[C@@H]1O (stereo partly shown) [Kojibiose] | reduced ΔTm shifts | 7.9 ± 0.2 | Fold reduction in binding affinity (increase in Kd) compared with trehalose [2]: ~30 fold; Kd ([2]; read-out: Kd): 2350 ± 123 µM
OC[C@H]1O[C@H](O[C@H]2O[C@H](CO)[C@@H](O)[C@H](O)[C@H]2O)[C@@H](O)[C@@H](O)[C@@H]1O [Mannotrehalose, α-D-mannopyranosyl-(1→1)-α-D-glucopyranoside] | – | 5.9 ± 0.3 | –
OC[C@H]1O[C@H](O[C@H]2[C@H](O)[C@@H](CO)OC(O)[C@@H]2O)[C@H](O)[C@@H](O)[C@@H]1O (stereo partly shown) [Nigerose] | reduced ΔTm shifts | 5.1 ± 0.1 | –
OC[C@H]1O[C@H](O[C@H]2O[C@H](CO)[C@@H](O)[C@H](O)[C@H]2O)[C@H](O)[C@@H](O)[C@@H]1O [Trehalose, α-D-glucopyranosyl-α-D-glucopyranoside] | – | – | Binding by STD NMR [4]: Binding was confirmed
O=P(O)(O)OC[C@H]1O[C@H](O[C@H]2O[C@H](CO)[C@@H](O)[C@H](O)[C@H]2O)[C@H](O)[C@@H](O)[C@@H]1O [Trehalose-6-phosphate] | – | 3.7 ± 0.2 | –
OC[C@H]1OC(O)[C@H](O)[C@@H](O)[C@@H]1O (stereo partly shown) [glucose] | no influence on the ΔTm | – | –
C[N+](C)(C)CCOP(=O)([O-])OC[C@H](O)CO [glycerophosphocholine] | did not observe binding | – | –
OC[C@H]1O[C@@H](O[C@H]2O[C@H](CO)[C@@H](O)[C@H](O)[C@H]2O)[C@H](O)[C@@H](O)[C@@H]1O [α,β-trehalose] | – | 3.7 ± 0.1 | –
